Values joined by “and” are separate entries in the source; they are usually repeats but may differ in a detail not shown here. Identical values can stand only once. Like-named read-outs stand apart in the source and are kept apart here.
Tests used:
Pgp [1] = settings: read-out: Kd for binding to Pgp, cited from earlier work
P-glycoprotein [2] = assay: [125I]iodomycin photolabelling of Pgp in EHR2/DNR+ cells; assay type: binding, mice
Source text: (§1) Br. J. Cancer (1993), 67, 226 231 ? Macmillan Press Ltd., 1993 Effect of anthracycline analogs on photolabelling of p-glycoprotein by I'25 liodomycin and [3Hlazidopine: Relation to lipophilicity and inhibition of daunorubicin transport in multidrug resistant cells E. Frichel*, E.J.F. Demant2, M. Sehested3 & N.I. Nissen' 'Department of Medicine and Hematology, L 4042, Rigshospitalet-University Hospital, 9, Blegdamsvej, DK-2100 Copenhagen; 2Department of Biochemistry C, The Panum Institute, University of Copenhagen, DK-2200 Copenhagen; 3Department of Pathology, Sundby Hospital, DK-2300 Copenhagen, Denmark. […] We photoaffinity labelled P-glycoprotein in daunorubicin (DNR) resistant Ehrlich ascites tumour cells (EHR2/DNR + ) with a ['25I]iodinated Bolton-Hunter derivative of daunorubicin ([1251]iodomycin) and with [3H]azidopine. […] Anthracyclines are among the most valuable cytostatic agents in clinical use. Their usefulness is, however, limited by the occurrence of tumour cells with the multidrug resistance (MDR) phenotype (Beck, 1987; Bliek & Borst, 1989; Endicott & Ling, 1989; Kaye & Merry, 1985; Moscow & Cowan, 1988). MDR cells have an enhanced amount of a 150- 170 kDa plasma membrane glycoprotein, P-glycoprotein (Pgp) (Kartner et al., 1983 and 1985; Cornwell et al., 1986; Bradley et al., 1988; Beck, 1991a; Roninson, 1991), that may function as a low-specificity transport protein to facilitate the outward transport of cytotoxic agents including the anthracyclines. Thus, increased drug efflux and therefore decreased accumulation is seen in MDR cells not only to the drug for which resistance is developed but also to a wide spectrum of chemically unrelated cytostatics (Bradley et al., 1988; Fojo et al., 1985). […] The aim of this study was to examine these analogs for their ability to com- pete for ligand binding to Pgp and thus service as inhibitors for the outward drug transport system in MDR cells. Anthracycline inter-actions with Pgp were assessed using the specific photolabelling of the protein with [251I]iodomycin, a ['251]iodinated Bolton-Hunter derivative of DNR (Busche et al., 1989a) and with [3H]azidopine ([3H]AZP) which photolabels Pgp in plasma membrane vesicles from EHR2/ DNR + cells (Sehested et al., 1990) as well as in whole cells (Safa et al., 1987; Friche et al., 1990c). […] Material and methods Chemicals Duanorubicin (DNR); AdriamycinR (Doxorubicin/HCl, DOX); 4'-deoxy-4'-iododoxorubicin (DIDOX); and 4- demethoxy-DNR were kindly supplied from Farmitalia, Carlo Erba (Milan, Italy). N,N-dibenzyl-DNR was a gift from Dr Nicholas Bachur, (Baltimore, MD) and N- benzyladriamycin-14-valerate (AD 198) a gift from Professor M. Israel (Memphis, TN). Mitoxantrone was purchased from Lederle (New Jersey, USA), Aclacinomycin A from Lund- beck & Co A/S (Copenhagen, Denmark), OncovinR (Vincristine/HCl, VCR) from Eli Lilly Deutschland GMBH (Giessen, Germany), Cremophor EL from BASF Aktiengesellschaft (Ludwigshafen, Germany), and Tween 80 from the Sigma Chemical Co. (St. Louis, MO). ['251]-Bolton- Hunter reagent (2000 Ci mmol 1), [3H]AZP (42 Ci mmol- ') and non-radioactive AZP were purchased from Amersham International (Amersham, UK). All other chemicals were of analytical grade. Organic solvents were distilled prior to use. Triethylamine was distilled over ninhydrin and anhydrous methanol was stored over molecular sieve (3 A). Tumour cells Cells were either the wild-type Ehrlich ascites tumor line (EHR2) or the corresponding DNR-resistant line (EHR2/ DNR + ) (Dan0, 1971) displaying both the MDR phenotype (Sehested et al., 1990) and as recently shown, decreased Correspondence: E. Friche. Received 22 April 1992; and in revised form 21 September 1992.

[3] = pH 7.45
Source text: as §1

EHR2/DNR+ cells [4] = settings: ref Friche et al., cited from earlier work
P-glycoprotein [5] = assay: [3H]azidopine photolabelling of Pgp in EHR2/DNR+ cells; assay type: binding, mice; settings: [3H]AZP 0.4 µM
Source text: as §1

EHR2/DNR+ [6] = settings: in vitro clonogenic assay; ref Friche et al., 1990b; cited from earlier work
EHR2/DNR+ [7] = settings: in vivo; ref Friche et al., 1987; cited from earlier work
Pgp [8] = test system: Pgp; design: method as in Safa et al. (1987); settings: ref Safa et al., 1987; cited from earlier work
EHR2/DNR+ cells [9] = assay: Modulating effect on steady-state DNR accumulation in EHR2/DNR+ cells; assay type: cell-based, mice; settings: equimolar concentrations (5 µM)
Source text: (§2) Br. J. Cancer (1993), 67, 226 231 ? Macmillan Press Ltd., 1993 Effect of anthracycline analogs on photolabelling of p-glycoprotein by I'25 liodomycin and [3Hlazidopine: Relation to lipophilicity and inhibition of daunorubicin transport in multidrug resistant cells E. Frichel*, E.J.F. Demant2, M. Sehested3 & N.I. Nissen' 'Department of Medicine and Hematology, L 4042, Rigshospitalet-University Hospital, 9, Blegdamsvej, DK-2100 Copenhagen; 2Department of Biochemistry C, The Panum Institute, University of Copenhagen, DK-2200 Copenhagen; 3Department of Pathology, Sundby Hospital, DK-2300 Copenhagen, Denmark. […] We photoaffinity labelled P-glycoprotein in daunorubicin (DNR) resistant Ehrlich ascites tumour cells (EHR2/DNR + ) with a ['25I]iodinated Bolton-Hunter derivative of daunorubicin ([1251]iodomycin) and with [3H]azidopine. […] Anthracyclines are among the most valuable cytostatic agents in clinical use. […] Anthracycline inter-actions with Pgp were assessed using the specific photolabelling of the protein with [251I]iodomycin, a ['251]iodinated Bolton-Hunter derivative of DNR (Busche et al., 1989a) and with [3H]azidopine ([3H]AZP) which photolabels Pgp in plasma membrane vesicles from EHR2/ DNR + cells (Sehested et al., 1990) as well as in whole cells (Safa et al., 1987; Friche et al., 1990c). […]

EHR2/DNR+ cells [10] = assay: Steady-state drug accumulation in EHR2 and EHR2/DNR+ cells; assay type: cell-based, mice
Source text: as §2, with “use. Their usefulness is, however, limited by the occurrence of tumour cells with the multidrug resistance (MDR) phenotype (Beck, 1987; Bliek & Borst, 1989; Endicott & Ling, 1989; Kaye & Merry, 1985; Moscow & Cowan, 1988). MDR cells have an enhanced amount of a 150- 170 kDa plasma membrane glycoprotein, P-glycoprotein (Pgp) (Kartner et al., 1983 and 1985; Cornwell et al., 1986; Bradley et al., 1988; Beck, 1991a; Roninson, 1991), that may function as a low-specificity transport protein to facilitate the outward transport of cytotoxic agents including the anthracyclines.” for “use.”

[11] = 10 µM drug (1000-fold molar excess), iodomycin 10 nM, 30 min 37°C
[12] = 40 µM drug (100-fold molar excess)

| Compound | Per cent inhibition of [125I]iodomycin photolabelling of Pgp (P-glycoprotein [2]; [11]) | Lipid solubility (O/W), octanol/water partition coefficient [3] | Per cent inhibition of [125I]iodomycin photolabelling of Pgp (P-glycoprotein [2]; 20 µM drug, iodomycin 10 nM) | Per cent inhibition of [125I]iodomycin photolabelling of Pgp (P-glycoprotein [2]; 40 µM drug, iodomycin 10 nM) | Per cent inhibition of [3H]AZP photolabelling of Pgp (P-glycoprotein [5]; 10 µM drug) | Per cent inhibition of [3H]AZP photolabelling of Pgp (P-glycoprotein [5]; 20 µM drug) | Per cent inhibition of [3H]AZP photolabelling of Pgp (P-glycoprotein [5]; [12]) | also measured |
| --- | --- | --- | --- | --- | --- | --- | --- | --- |
| CCOC(=O)C1=C(C)NC(C)=C(C(=O)OCCNC(=O)c2ccc(N=[N+]=[N-])cc2)C1c1ccccc1C(F)(F)F (stereo not drawn) [Azidopine] | 67.9% |  |  |  |  |  |  | Kd (Pgp [1]; ref Safa et al., 1987): 1000 nM; Per cent inhibition of [125I]iodomycin photolabelling of Pgp (P-glycoprotein [2]; 1 µM modulator): 6.7%; Per cent inhibition of [125I]iodomycin photolabelling of Pgp (P-glycoprotein [2]; 1 µM modulator, listed as AZP): hardly inhibited; Per cent inhibition of [125I]iodomycin photolabelling of Pgp (P-glycoprotein [2]; 5 µM modulator (500-fold molar excess)): 50.0%; Per cent inhibition of [125I]iodomycin photolabelling of Pgp (P-glycoprotein [2]; 5 µM modulator (500-fold molar excess), listed as AZP): 50% |
| COc1cccc2c1C(=O)c1c(O)c3c(c(O)c1C2=O)C[C@@](O)(C(=O)CO)C[C@@H]3O[C@H]1C[C@H](N)[C@H](I)[C@H](C)O1 [DIDOX, 4'-deoxy-4'-iododoxorubicin] | 20.6% | 14.51 | 17.5% | 22.5% | 0% | 0% | 19.7% | Effect on accumulation of DNR (EHR2/DNR+ cells [4]; 1990b, Arcamone, 1985): did not increase DNR accumulation |
| COc1cccc2c1C(=O)c1c(O)c3c(c(O)c1C2=O)C[C@@](O)(C(C)=O)C[C@@H]3O[C@H]1C[C@H](N)[C@H](O)[C@H](C)O1 [Daunorubicin] | 52.5% | 7.85 | 82.7% | 90.6% | 8.0% | 33.2% | 50.0% | Resistance of EHR2/DNR+ subline (EHR2/DNR+ [6]): about 80 fold; Per cent inhibition of [125I]iodomycin photolabelling of Pgp (P-glycoprotein [2]; 20 µM drug, iodomycin 10 nM, listed as DNR): 83%; Per cent inhibition of [125I]iodomycin photolabelling of Pgp (P-glycoprotein [2]; 40 µM drug, iodomycin 10 nM, listed as DNR): 90%; Resistance of EHR2/DNR+ subline (EHR2/DNR+ [7]): at least 16 fold |
| COc1cccc2c1C(=O)c1c(O)c3c(c(O)c1C2=O)C[C@@](O)(C(=O)CO)C[C@@H]3O[C@H]1C[C@H](N)[C@H](O)[C@H](C)O1 [Doxorubicin] | 0% | 1.22 | 0% | 16.8% | 0% | 10.5% | 11.0% | Effect on accumulation of DNR (EHR2/DNR+ cells [4]; 1990a): does not increase accumulation of DNR; Inhibition of [3H]AZP labelling of Pgp (Pgp [8]): 19%; Per cent inhibition of [125I]iodomycin photolabelling of Pgp (P-glycoprotein [2]; 10 µM drug (1000-fold molar excess), iodomycin 10 nM, 30 min 37°C, listed as DOX): did not cause significant inhibition; Per cent inhibition of [125I]iodomycin photolabelling of Pgp (P-glycoprotein [2]; 40 µM drug, iodomycin 10 nM, listed as DOX): 17% and 10-17%; Per cent inhibition of [3H]AZP photolabelling of Pgp (P-glycoprotein [5]; 40 µM drug (100-fold molar excess), listed as DOX): 10-17% |
| COc1cccc2c1C(=O)c1c(O)c3c(c(O)c1C2=O)C[C@@](O)(C(C)=O)C[C@@H]3OC1CC(N(Cc2ccccc2)Cc2ccccc2)C(O)C(C)O1.Cl (stereo partly drawn) [N,N,-dibenzyl-daunorubicin] | 52.4% | > 200 | 97.3% | > 99% | 75.2% | 87.1% | 90.5% | Effect on accumulation of DNR (EHR2/DNR+ cells [9]): did increase accumulation of DNR the most; Per cent inhibition of [125I]iodomycin photolabelling of Pgp (P-glycoprotein [2]; 20 µM drug, iodomycin 10 nM, listed as N,N-dibenzyl-DNR): 97%; Per cent inhibition of [3H]AZP photolabelling of Pgp (P-glycoprotein [5]; 40 µM drug (100-fold molar excess), listed as N,N-dibenzyl-DNR): about 90% |
| COc1cccc2c1C(=O)c1c(O)c3c(c(O)c1C2=O)CC(O)(C(C)=O)CC3OC1CC(NC(=O)CCc2ccc(O)c(I)c2)C(O)C(C)O1 (stereo not drawn) [[125I]iodomycin] |  |  |  |  |  |  |  | Reduced steady-state accumulation in EHR2/DNR+ relative to EHR2 (EHR2/DNR+ cells [10]): ~5 fold; Steady-state accumulation (EHR2/DNR+ cells [10]; EHR2/DNR+ cells): 42 fmol 10-6 cells; Steady-state accumulation (EHR2/DNR+ cells [10]; EHR2 cells (wild type)): 207 fmol 10-6 cells; Kd (Pgp [1]; ref Busche et al., 1989b): 25 nM |

From publication PMC1968196, “Effect of anthracycline analogs on photolabelling of p-glycoprotein by [125I]iodomycin and [3H]azidopine: relation to lipophilicity and inhibition of daunorubicin transport in multidrug resistant cells” (British Journal of Cancer, 1993)
